Data on five compounds can be found in paper PMC8795568 (Proceedings of the National Academy of Sciences of the …, 2022).

One series has as its system several solid tumors. The conditions noted are these: trial terminated; cited from earlier work.
Series [1] concerns NUT midline carcinoma and other solid cancers. To be noted: patients, cited from earlier work.
Series [2] has as its system midline nuclear protein in testis (NUT) carcinoma. The conditions noted are these: phase IIb trial, closed; ref NCT02296476; cited from earlier work.
The conditions of series [3]: clinical; cited from earlier work.
The test system of a further series is Panc1 cells. Kind of series: Cell growth assay. It counts as cell-based, human. To be noted: Panc1, 1 μM each drug, until DMSO cells reached 100% confluence.

With `CNC(=O)N1N=C(c2ccc(N3CCN(C)CC3)cc2)c2cc(OC)c(OC)cc2C[C@@H]1C` [BAY1238097], the dose-limiting toxicities result in the series with several solid tumors is on record as “high rates of dose-limiting toxicities at subtherapeutic doses”.

For the compound `CCNC(=O)C[C@@H]1N=C(c2ccc(Cl)cc2)c2cc(OC)ccc2-n2c(C)nnc21` [GSK525762], in series [1] (adverse effects), the rate of nausea is 40% and the rate of thrombocytopenia is reported as 44%. The partial responses in series [1] is 2 out of 10. As for `Cc1sc2c(c1C)C(c1ccc(Cl)cc1)=N[C@@H](CC(=O)Nc1ccc(O)cc1)c1nnc(C)n1-2` [MK-8628], the clinical activity entry in series [2] is listed as “lack of detectable clinical activity”. Take `COc1cc(OC)c2c(=O)[nH]c(-c3cc(C)c(OCCO)c(C)c3)nc2c1` [RVX000222]: the safety entry in series [3] was “improved safety threshold”.

Regarding `COc1ccc(CCc2nc3cc(-c4c(C)noc4C)ccc3n2C[C@H](C)N2CCOCC2)cc1Cl` [SGC-CBP30], the “cell growth (confluence)” value with Panc1 cells is reported as “marginal effect on cell growth”.
